Molecules are shown by their SMILES.

The IC50 is the concentration at which inhibition is half-maximal.

Series [1] in a line: Measurement of body temperature increase (rectal body temperature). As to conditions: Crl/SD rats, oral; for Body temperature increase ΔTb: 1 mg/mL in 0.5% methylcellulose at 10 mL/kg, difference from vehicle group average; for Body temperature increase: 1 mg/mL at 10 mL/kg. The format is in vivo, rat. As for the experimental part:
Test Animals: Selection of rats (Crl/SD rats, 7 weeks, male) for this study was based on rectal body temperature measured during the morning of the day of dosing. In addition, animals selected for this study were acclimated to both the rectal measurement procedure and to being handled and dosed to minimize spontaneous, stress-induced, increases in body temperature. The study was conducted in the animal care laboratories where the room temperature and humidity were kept. The rats were free to move and food and water during the study. Each rat was numbered with color line on the tail, housed in each cage and permitted the normal range of movement. Immediately before each body temperature was measured, they transferred to a single cage at each measurement. To reduce stress which affected the body temperature, the rats were covered with towels at the measurement. The thermistor probe was then carefully inserted into the rectum of each rat and left in place until the value on the digital display had stabilized.
Assays: On the day before dosing, rectal body temperatures were measured at 9:00, 10:00, 11:00, 12:30, 13:30, 14:30 and 15:30 to familiarize the animals with the measurement procedure prior to administration of the test or control treatments. The rats were also dosed by oral gavage without vehicle at 12:30 to acclimate and familiarized the animals with the handling and dosing procedure.
On the day of dosing, only rats whose rectal body temperatures were within the range of 37.0° C. to 37.7° C. were selected for this study. Rectal body temperatures were measured at 9:00, 10:00 and 11:00. Rats whose rectal body temperatures were over 37.9° C. at 10:00, and were outside the range of 37.0° C. to 37.7° C. at 11:00 were excluded from the study. The selected rats were divided to several groups based on their rectal body temperatures at 11:00. Rectal body temperatures of the selected rats were measured again at 12:30, and any rats whose rectal body temperature was 38.0° C. or greater were excluded from the study.
Following the group assignment, test compounds or vehicle was administrated to the rats. Each test compound was dissolved in 0.5% methylcellurose and the final concentration of the compound was adjusted to 1 mg/mL. Test compound was orally administrated in a volume 10 mL/kg once. 10 mL/kg of vehicle (0.5% methylcellurose) was administered to the vehicle group. The rectal body temperatures were measured 0.5, 1 and 2 hrs after the administration. The study was conducted in the animal care laboratories where the room temperature and humidity were kept.
Body temperature increase (ΔTb) was calculated from the difference from an average of the vehicle group at each time point.

Series [2] has as its target T1, human recombinant TRPV1 (Homo sapiens (Human), UniProt Q8NER1). Nature of the series: TRPV1 pH-Based Assay (Protocol 2, Ca2+ response in TRPV1/CHO cells, Fura-2). The format is cell-based. Particulars: TRPV1/CHO cells, pH 5.0-5.1; read-out: IC50 value by the pH-Based Assay. The procedure, abridged: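 CHO cells stably expressing human TRPV1, Fura-2 loaded, given compound (1% DMSO in 10× stock) before acid challenge to final pH 5.0-5.1 (3.2 or 3.3 mM H2SO4). 340/380 nm ratio recorded at 0.5 Hz; maximal ratio after agonist addition versus 16-point baseline used as response.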

Series [3] deals with T1, human recombinant TRPV1. Nature of the series: TRPV1 Capsaicin-Based Assay (Protocol 2, TRPV1/CHO cells, Fluo-4, FLIPR). As to conditions: TRPV1/CHO cells, capsaicin 100 nM final; read-out: IC50 value by the Capsaicin-Based Assay. The format is cell-based. As for the experimental part: For Protocol 2, a Chinese Hamster Ovary cell line (CHO) that has been engineered to constitutively express human recombinant TRPV1 was used (TRPV1/CHO cells). The TRPV1/CHO cell line was generated as described below.
One day prior to assay, TRPV1/CHO cells were seeded in 96-well clear-bottom black plates (20,000 cells/well) in growth media. On the day of the experiment, the cells were washed with 0.2 mL 1× Hank's Balanced Salt Solution (Life Technologies) containing 1.6 mM CaCl2 and 20 mM HEPES, pH 7.4 (“wash buffer”). Subsequently, the cells were loaded by incubation in 0.1 mL of wash buffer containing Fluo-4 at 3 μM final concentration. After 1 hour, the cells were washed twice with 0.2 mL wash buffer and resuspended in 0.1 mL wash buffer. The plates were then transferred to a Fluorescence Imaging Plate Reader (Molecular Devices). Fluorescence intensity was monitored for 15 seconds to establish a baseline. Subsequently, test compounds diluted in assay buffer (1× Hank's Balanced Salt Solution containing 1 mM CaCl2 and 20 mM HEPES, pH 7.4) containing 1% DMSO were added to the cell plate and fluorescence was monitored for 2 minutes. […] Human TRPV1 was then activated by the addition of 50 μL capsaicin (100 nM final concentration) and plates incubated for an additional 3 min. Data were collected over the entire time course and analyzed using Excel and the curve-fitting formula GraphPad Prism.

T1 sequence (Q8NER1 whole entry): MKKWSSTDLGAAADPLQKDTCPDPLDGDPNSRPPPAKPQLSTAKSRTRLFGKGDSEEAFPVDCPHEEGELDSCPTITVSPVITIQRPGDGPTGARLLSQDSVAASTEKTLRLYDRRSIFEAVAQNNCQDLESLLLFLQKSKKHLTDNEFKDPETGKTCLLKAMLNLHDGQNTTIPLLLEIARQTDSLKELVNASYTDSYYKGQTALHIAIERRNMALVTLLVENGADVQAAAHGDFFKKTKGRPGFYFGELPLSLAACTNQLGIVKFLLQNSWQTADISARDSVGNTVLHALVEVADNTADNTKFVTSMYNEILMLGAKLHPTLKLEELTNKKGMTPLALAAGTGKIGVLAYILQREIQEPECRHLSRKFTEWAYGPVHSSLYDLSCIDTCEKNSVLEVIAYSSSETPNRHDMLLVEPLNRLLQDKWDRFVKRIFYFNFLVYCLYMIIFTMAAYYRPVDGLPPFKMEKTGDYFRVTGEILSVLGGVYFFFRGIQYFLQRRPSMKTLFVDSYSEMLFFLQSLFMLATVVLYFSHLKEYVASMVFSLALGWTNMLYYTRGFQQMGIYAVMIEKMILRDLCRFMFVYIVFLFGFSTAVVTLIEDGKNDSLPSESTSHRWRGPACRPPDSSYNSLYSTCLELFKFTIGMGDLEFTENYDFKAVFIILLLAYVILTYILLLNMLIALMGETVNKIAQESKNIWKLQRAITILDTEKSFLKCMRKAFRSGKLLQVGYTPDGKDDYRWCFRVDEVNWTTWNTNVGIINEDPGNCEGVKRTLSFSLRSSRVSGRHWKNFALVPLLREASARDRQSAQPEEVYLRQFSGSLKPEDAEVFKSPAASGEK

As to `Cc1cc2nc(NC(=O)N3CCN(c4ncc(C[C@@H](O)CO)cc4F)CC3)sc2cc1C` [ACZ, (R)-4-(5-(2,3-dihydroxypropyl)-3-fluoropyridin-2-yl)-N-(5,6-dimethylbenzo[d]thiazol-2-yl)piperazine-1-carboxamide], the “Body temperature increase ΔTb” value in series [1] is 0.24 °C. Moreover, in series [2], the half-inhibitory concentration (IC50) was at most 0.05 µM.
For the compound `Cc1ccc2nc(NC(=O)N3CCN(c4ncc(C[C@@H](O)CO)cc4F)CC3)sc2c1` [ACY, (R)-4-(5-(2,3-dihydroxypropyl)-3-fluoropyridin-2-yl)-N-(6-methylbenzo[d]-thiazol-2-yl)piperazine-1-carboxamide], the Body temperature increase result in series [1] was “less than 0.5 °C”. Further, the IC50 in series [2] and in series [3] was at most 0.05 µM throughout.
With `O=C(Nc1nc2ccc(F)cc2s1)N1CCN(c2ncc(C[C@H](O)CO)cc2F)CC1` [ADD, (S)-4-(5-(2,3-dihydroxypropyl)-3-fluoropyridin-2-yl)-N-(6-fluorobenzo[d]-thiazol-2-yl)piperazine-1-carboxamide], in series [1], the Body temperature increase entry is “less than 0.5 °C”. Also, the half-inhibitory concentration (IC50) in series [2] is at most 0.05 µM.
On the same counts, the results for `Cc1cc(NC(=O)N2CC=C(c3ncc(C[C@@H](O)CO)cc3F)CC2)ccc1C(F)(F)F` [ACA, (R)-5-(2,3-dihydroxypropyl)-3-fluoro-N-(3-methyl-4-(trifluoro-methyl)phenyl)-5′,6′-dihydro-[2,4′-bipyridine]-1′(2′H)-carboxamide] are “less than 0.5 °C” and at most 0.05 µM.
In the case of `Cc1cc(NC(=O)N2CCC(F)(c3ncc(C[C@@H](O)CO)cc3F)CC2)ccc1OC(F)(F)F` [ACP, (R)-4-(5-(2,3-dihydroxypropyl)-3-fluoropyridin-2-yl)-4-fluoro-N-(3-methyl-4-(trifluoromethoxy)phenyl)piperidine-1-carboxamide], in series [1], the “Body temperature increase ΔTb” value came out at 0.16 °C. Moreover, the IC50 in series [2] and in series [3] was at most 0.05 µM throughout.
Regarding `O=C(Nc1nc2ccc(F)cc2s1)N1CCN(c2ncc(C[C@H](O)CO)cc2Cl)CC1` [ADR], the Body temperature increase entry in series [1] was “less than 0.5 °C”. The IC50 in series [2] and in series [3] was at most 0.05 µM in each case.
In the case of `O=C(Nc1ccc(C(F)(F)F)c(Cl)c1)N1CC=C(c2ncc(C[C@@H](O)CO)cc2Cl)CC1` [AAK, (R)-N-(3-Chloro-4-(trifluoromethyl)phenyl)-4-(3-chloro-5-(2,3-dihydroxypropyl)pyridin-2-yl)-5,6-dihydropyridine-1(2H)-carboxamide], the Body temperature increase entry in series [1] was “less than 0.5 °C”. The IC50 in series [2] was at most 0.05 µM.
As for `O=C(Nc1nc2ccc(Cl)cc2s1)N1CCN(c2ncc(C[C@@H](O)CO)cc2F)CC1` [ACX, (R)-N-(6-chlorobenzo[d]thiazol-2-yl)-4-(5-(2,3-dihydroxypropyl)-3-fluoropyridin-2-yl)piperazine-1-carboxamide], in series [1], the Body temperature increase result is “less than 0.5 °C”. The half-maximal inhibitory concentration (IC50) in series [2] and in series [3] was at most 0.05 µM throughout.
For `O=C(Nc1ccc(C(F)(F)F)c(Cl)c1)N1CC=C(c2ncc(C[C@H](O)CO)cc2Cl)CC1` [AAF, (S)-N-(3-Chloro-4-(trifluoromethyl)phenyl)-4-(3-chloro-5-(2,3-dihydroxypropyl)pyridin-2-yl)-5,6-dihydropyridine-1(2H)-carboxamide], the Body temperature increase result in series [1] was “less than 0.5 °C”. Besides, in series [2], the IC50 was at most 0.05 µM.
For the compound `C[C@H]1CN(c2ncc(C[C@H](O)CO)cc2Cl)CCN1C(=O)Nc1nc2ccc(Cl)cc2s1` [AEG], the Body temperature increase entry in series [1] was “less than 0.5 °C”. The concentration for half-maximal inhibition (IC50) in series [3] was at most 0.05 µM.
For `Cc1cc(NC(=O)N2CC=C(c3ncc(C[C@H](O)CO)cc3F)CC2)ccc1OC(F)(F)F` [ABZ, (S)-5-(2,3-dihydroxypropyl)-3-fluoro-N-(3-methyl-4-(trifluoromethoxy)-phenyl)-5′,6′-dihydro-[2,4′-bipyridine]-1′(2′H)-carboxamide], in series [1], the “Body temperature increase ΔTb” value stood at 0.03 °C. Besides, the IC50 in series [2] was at most 0.05 µM.
Take `O=C(Nc1nc2ccc(Cl)cc2s1)N1CCN(c2ncc(C[C@H](O)CO)cc2Cl)CC1` [ADW]: the Body temperature increase entry in series [1] is “less than 0.5 °C”. Further, the concentration for half-maximal inhibition (IC50) in series [2] and in series [3] was at most 0.05 µM in each case.
Regarding `Cc1cc(NC(=O)N2CC=C(c3ncc(C[C@H](O)CO)cc3F)CC2)ccc1C(F)(F)F` [ABY, (S)-5-(2,3-dihydroxypropyl)-3-fluoro-N-(3-methyl-4-(trifluoromethyl)phenyl)-5′,6′-dihydro-[2,4′-bipyridine]-1′(2′H)-carboxamide], the Body temperature increase result in series [1] is “less than 0.5 °C”. Further, the half-maximal inhibitory concentration (IC50) in series [2] and in series [3] was at most 0.05 µM each time.
As for `COc1cc(NC(=O)N2CC=C(c3ncc(C[C@@H](O)CO)cc3Cl)CC2)ccc1C(F)(F)F` [AAM, (R)-4-(3-Chloro-5-(2,3-dihydroxypropyl)pyridin-2-yl)-N-(3-methoxy-4-(trifluoromethyl)phenyl)-5,6-dihydropyridine-1(2H)-carboxamide], the Body temperature increase result in series [1] was “less than 0.5 °C”. Besides, the concentration for half-maximal inhibition (IC50) in series [2] is at most 0.05 µM.
On to `C[C@@H]1CN(c2ncc(C[C@@H](O)CO)cc2F)CCN1C(=O)Nc1nc2ccc(Cl)cc2s1` [ADK, (R)-N-(6-chlorobenzo[d]thiazol-2-yl)-4-{5-[(R)-2,3-dihydroxypropyl]-3-fluoropyridin-2-yl}-2-methylpiperazine-1-carboxamide], for which, in series [1], the Body temperature increase entry was “less than 0.5 °C”. Further, the IC50 in series [2] is at most 0.05 µM.
As for `Cc1ccc2nc(NC(=O)N3CCN(c4ncc(C[C@H](O)CO)cc4Cl)CC3)sc2c1` [ADX], the Body temperature increase result in series [1] is “less than 0.5 °C”. Besides, the IC50 in series [3] is at most 0.05 µM.
In the case of `Cc1cc(NC(=O)N2CC=C(c3ncc(C[C@@H](O)CO)cc3Cl)CC2)ccc1C(F)(F)F` [AAW, (R)-4-(3-Chloro-5-(2,3-dihydroxypropyl)pyridin-2-yl)-N-(3-methyl-4-(trifluoromethyl)phenyl)-5,6-dihydropyridine-1(2H)-carboxamide], the Body temperature increase entry in series [1] was “less than 0.5 °C”. Also, the IC50 in series [2] is at most 0.05 µM.
Regarding `Cc1cc(NC(=O)N2CC=C(c3ncc(C[C@@H](O)CO)cc3C)CC2)ccc1C(F)(F)F` [ACD, (R)-4-(5-(2,3-dihydroxypropyl)-3-methylpyridin-2-yl)-N-(3-methyl-4-(trifluoromethyl)phenyl)-5,6-dihydropyridine-1(2H)-carboxamide], the Body temperature increase entry in series [1] was “less than 0.5 °C”.
As for `O=C(Nc1nc2ccccc2s1)N1CCN(c2ncc(C[C@@H](O)CO)cc2Cl)CC1` [ADV], the Body temperature increase result in series [1] is “less than 0.5 °C”. The IC50 in series [2] was at most 0.05 µM.
Turning to `Cc1cc(NC(=O)N2CC=C(c3ncc(C[C@H](O)CO)cc3C)CC2)ccc1OC(F)(F)F` [ACK, (S)-4-(5-(2,3-dihydroxypropyl)-3-methylpyridin-2-yl)-N-(3-methyl-4-(trifluoromethoxy)phenyl)-5,6-dihydropyridine-1(2H)-carboxamide], the Body temperature increase entry in series [1] is “less than 0.5 °C”.
Consider `O=C(Nc1nc2ccc(F)cc2s1)N1CCC(F)(c2ncc(C[C@@H](O)CO)cc2Cl)CC1` [AEF, (R)-4-(3-chloro-5-(2,3-dihydroxypropyl)pyridin-2-yl)-4-fluoro-N-(6-fluorobenzo[d]thiazol-2-yl)piperidine-1-carboxamide], for which the Body temperature increase result in series [1] is “less than 0.5 °C”.

For the origin of these results see patent publication US8921373B2, “Compounds having TRPV1 antagonistic activity and uses thereof” (Shionogi & Co., Ltd., priority 2010, dated 2014).
